Source: paper PMC9774128, “New Insights into the Mechanism of Antibacterial Action of Synthetic Peptide Mo-CBP3-PepI against Klebsiella pneumoniae” (Antibiotics, 2022)

Columns and labels:
[1] = test system: K. pneumoniae cells; conditions: 31.25 µg mL^−1, 24 h
Method: After this, samples were washed twice with 50 mM sodium acetate pH 5.2, with centrifugations at 12,000× g for 15 min at 4 °C. At the end of the washes, the samples were resuspended in 300 µL in the same buffer and frozen for 24 h. Then, the frozen samples were sonicated for 30 min to break the cell wall and membrane, the samples were centrifuged again, and the supernatant was collected.
After that, the Bradford assay was performed to determine the protein concentration in the samples. This step was followed by adding a 10 mM DTT solution under incubation for 1 h at 37 °C to reduce the proteins. Then iodoacetamide was added to a final concentration of 15 mM and incubated for 30 min in a dark room to alkylate the reduced proteins. The proteins reduced and alkylated were digested using trypsin gold (Promega, Madison, WI, USA) to a final concentration of 1:20 (w/w) as described by manufacturers. The trypsin digestion was performed for 16 h at 37 °C. Finally, the samples were dried in a speed vacuum (Eppendorf, Hamburg, Germany) for 3 h and analyzed by ESI-QUAD-TOF mass spectrometer.
Tandem mass spectra were extracted into PKL files for both samples, and the proteins were searched using MASCOT MS/MS ions search from MATRIX SCIENCE (https://www.matrixscience.com/cgi/search_form.pl?FORMVER=2&SEARCH=MIS (accessed on 15 September 2022)) against UP625_E_coli_K12 (AA), UP808_K_pneumoniae and SwissProt databases (the taxonomy was set in bacteria). The terms for the search were: fixed modifications to Carbamidomethyl (C); variable modifications to Oxidation […]; the Peptide tolerance was set to 1.2 DA (with 1% FDR); the MS/MS tolerance was set to 0.6 DA; the peptide charge was set to 2+, 3+, and 4+; and finally, the instrument was set to ESI-QUAD-TOF. The proteins identified in both samples were searched for in UNIPROT and separated into 3 sets (unique from control, unique from the cells treated with Mo-CBP3-PepI, and Mo-CBP3-PepI x control shared proteins).
The proteins with a fold-change value ≥ 1.5 (p < 0.05, Tukey’s test) that were up-accumulated (increased the abundance), and proteins with a fold-change value ≤ 0.5 (p < 0.05, Tukey’s test) that were down-accumulated (decreased the abundance) were taken into consideration for comparisons. For each protein, its corresponding FASTA file was downloaded. Then, the blast2go program (https://www.blast2go.com/ (accessed on 30 September 2022)) was used to categorize the proteins detected by Gene Ontology (GO) annotation according to Molecular function, […], and subcellular location.

[2] = test system: C. albicans cells; conditions: cited from earlier work
Description: To answer the second question, it is necessary to understand an essential characteristic of antimicrobial peptides, self-association. Self-association is the ability of antimicrobial peptides to interact during the insertion into the membrane, allowing the formation of a huge pore. […] In this model, a peptide interacts with lipids in the membrane, as described above, to perform the insertion into the membrane. Then, the peptide molecules interact between them to form a huge por ...

[3] = test system: K. pneumoniae (ATCC 10031); test: Antibacterial assay (MIC50); assay type: cell-based, Klebsiella pneumoniae; conditions: against K. pneumoniae; compared with 31.25 µg mL^−1 of Oliveira et al.
Description: The human-pathogenic Gram-negative bacteria K. pneumoniae (ATCC 10031) strain was obtained from the Laboratory of Plant Toxins (LABTOX) of the Federal University of Ceará (UFC).

[4] = test system: K. pneumoniae (ATCC 10031); set-up: method as in PMID 30389515; conditions: against K. pneumoniae; cited from earlier work
[5] = test system: K. pneumoniae cells; test: Cell viability by MTT assay, planktonic cells; assay type: cell-based, Klebsiella pneumoniae; conditions: peptide at MIC50 31.25 μg mL^−1 (Table 1; method says 1 mg mL^−1), MTT 3 h, 37 °C, absorbance 495 nm
Method: The cell viability assay was performed as described by Lima et al., with some adjustments. After the antibacterial assay was completed as described by Oliveira et al., the wells containing the treated cells with Mo-CBP3-PepI at 1 mg mL^−1 and control cells (50 µL) were incubated for 3 h in the dark at 37 °C with 50 µL of 3-(4,5-dimethylthiazol-2-yl)-2,5-diphenyltetrazolium bromide (2 mg mL^−1, MTT). After incubation, 100 µL of 100% DMSO was added to the wells, and the plate was slowly shaken to dissolve the formazan crystals. The absorbance was measured using a microplate reader (Epoch, BioTek) with a wavelength of 495 nm. The controls used for this assay were 5% of dimethyl sulfoxide (DMSO) prepared in 0.15 M NaCl (saline) solution and ciprofloxacin (1000 µg mL^−1) prepared in 5% ethanol in sterile saline solution.

[6] = set-up: method as in PMID 30389515; conditions: design feature; cited from earlier work
Description: Synthetic antimicrobial peptides emerged as a solution to solve the problems presented by natural antimicrobial peptides. […] To answer the first question, it is necessary to revert to the design process of Mo-CBP3-PepI.

CPAIQRCC [Mo-CBP3-PepI]
Fold Change Mo-CBP3-PepI vs. DMSO: Methylenetetrahydrofolate--tRNA-(uracil-5-)-methyltransferase TrmFO ([1]; A4WRQ2): 0.948
Fold Change Mo-CBP3-PepI vs. DMSO: 50S ribosomal protein L22 ([1]; A5IYY1): 0.187
Fold Change Mo-CBP3-PepI vs. DMSO: Phosphoenolpyruvate carboxykinase (ATP) ([1]; A8AQV7): 0.990
Fold Change Mo-CBP3-PepI vs. DMSO: Xylose isomerase ([1]; B5ZQV6): 1.062
Fold Change Mo-CBP3-PepI vs. DMSO: Pantothenate synthetase ([1]; B8I2Z3): 1.142
Fold Change Mo-CBP3-PepI vs. DMSO: Chaperonin GroEL ([1]; P0A6F5): 1.444
Fold Change Mo-CBP3-PepI vs. DMSO: Pantothenate kinase ([1]; P0A6I3): 0.548
Fold Change Mo-CBP3-PepI vs. DMSO: HTH-type transcriptional regulator ArgP ([1]; P0A8S1): 2.364
Fold Change Mo-CBP3-PepI vs. DMSO: 50S ribosomal protein L7/L12 ([1]; P0A466): 1.979
Fold Change Mo-CBP3-PepI vs. DMSO: Zinc resistance-associated protein ([1]; P0AAA9): 1.682
Fold Change Mo-CBP3-PepI vs. DMSO: Cysteine synthase A ([1]; P0ABK5): 0.596
Fold Change Mo-CBP3-PepI vs. DMSO: Fimbriae Z protein ([1]; P0AEL8): 0.690
Fold Change Mo-CBP3-PepI vs. DMSO: Ferrichrome outer membrane transporter/phage receptor ([1]; P06971): 1.063
Fold Change Mo-CBP3-PepI vs. DMSO: Iron (3+)-hydroxamate import system permease protein FhuB ([1]; P06972): 0.948
Fold Change Mo-CBP3-PepI vs. DMSO: 2-succinyl-5-enolpyruvyl-6-hydroxy-3-cyclohexene-1-carboxylate synthase ([1]; P17109): 3.486
Fold Change Mo-CBP3-PepI vs. DMSO: Sensor protein PhoQ ([1]; P23837): 0.823
Fold Change Mo-CBP3-PepI vs. DMSO: Lipopolysaccharide core biosynthesis protein RfaZ ([1]; P27241): 2.038
Fold Change Mo-CBP3-PepI vs. DMSO: Inner membrane protein YhjD ([1]; P37642): 0.362
Fold Change Mo-CBP3-PepI vs. DMSO: Gamma-glutamylputrescine oxidoreductase ([1]; P37906): 0.985
Fold Change Mo-CBP3-PepI vs. DMSO: Endonuclease 8 ([1]; P50465): 0.287
Fold Change Mo-CBP3-PepI vs. DMSO: Sensor histidine kinase GlrK ([1]; P52101): 0.752
Fold Change Mo-CBP3-PepI vs. DMSO: 2.3-bisphosphoglycerate-dependent phosphoglycerate mutase ([1]; P62707): 0.519
Fold Change Mo-CBP3-PepI vs. DMSO: Low affinity potassium transport system protein kup ([1]; P63183): 1.704
Fold Change Mo-CBP3-PepI vs. DMSO: Peptide methionine sulfoxide reductase MsrB ([1]; P75129): 14.104
Fold Change Mo-CBP3-PepI vs. DMSO: Probable cytosol aminopeptidase ([1]; P75206): 2.097
Fold Change Mo-CBP3-PepI vs. DMSO: tRNA uridine 5-carboxymethylaminomethyl modification enzyme MnmG ([1]; P75221): 0.487
Fold Change Mo-CBP3-PepI vs. DMSO: Phosphate acyltransferase ([1]; P75232): 3.096
Fold Change Mo-CBP3-PepI vs. DMSO: Putative ABC transporter ATP-binding protein MPN_334 ([1]; P75444): 1.336
Fold Change Mo-CBP3-PepI vs. DMSO: Putative acetyltransferase MPN_114 ([1]; P75448): 1.703
Fold Change Mo-CBP3-PepI vs. DMSO: Cytadherence high molecular weight protein 2 ([1]; P75471): 1.682
Fold Change Mo-CBP3-PepI vs. DMSO: Oligopeptide transport ATP-binding protein OppD ([1]; P75552): 0.948
Fold Change Mo-CBP3-PepI vs. DMSO: Phenylacetate-coenzyme A ligase ([1]; P76085): 1.666
Fold Change Mo-CBP3-PepI vs. DMSO: Sensor histidine kinase HprS ([1]; P76339): 0.213
Fold Change Mo-CBP3-PepI vs. DMSO: UDP-glucose 6-dehydrogenase ([1]; P76373): 0.902
Fold Change Mo-CBP3-PepI vs. DMSO: Cation efflux system protein CusC ([1]; P77211): 0.920
Fold Change Mo-CBP3-PepI vs. DMSO: Glycerate 3-kinase ([1]; P77364): 0.745
Fold Change Mo-CBP3-PepI vs. DMSO: Glutathione S-transferase YfcF ([1]; P77544): 0.273
Fold Change Mo-CBP3-PepI vs. DMSO: HTH-type transcriptional regulator SutR ([1]; P77626): 2.566
Fold Change Mo-CBP3-PepI vs. DMSO: Lon protease ([1]; P78025): 0.342
Fold Change Mo-CBP3-PepI vs. DMSO: Pyruvate kinase ([1]; P78031): 3.139
Fold Change Mo-CBP3-PepI vs. DMSO: Undecaprenyl-diphosphatase ([1]; Q2KX31): 1.340
Fold Change Mo-CBP3-PepI vs. DMSO: Periplasmic trehalase ([1]; Q4UZ12): 0.937
Fold Change Mo-CBP3-PepI vs. DMSO: GMP synthase (glutamine-hydrolyzing) ([1]; Q6APU2): 4.596
Fold Change Mo-CBP3-PepI vs. DMSO: Elongation factor G ([1]; Q7NAV3): 0.234
Fold Change Mo-CBP3-PepI vs. DMSO: Diaminopimelate decarboxylase ([1]; Q8K9C4): 3.546
Fold Change Mo-CBP3-PepI vs. DMSO: Bifunctional protein FolD ([1]; Q88WM8): 0.726
Fold Change Mo-CBP3-PepI vs. DMSO: Mgp-operon protein 3 ([1]; Q50341): 0.654
pore size [2]: 10 kDa
MIC50, experiments repeated here [3]: same results
MIC50 [4]: 31.25 µg/mL
Cell Viability (%) [5]: 47.54 ± 0.008%
hydrophobic ratio [6]: 62%
net charge [6]: +1
